Test results reported in patent publication US9790216B2, “3-substituted cyclopentylamine derivatives” (Merck Patent GmbH, priority 2013, dated 2017).

Biological target: T1, human fatty acid synthase FASN (Homo sapiens, UniProt P49327)
T1 construct: human recombinant full-length fatty acid synthase; made in house; host or cells: SF9 cells
Test: Biochemical activity testing of human fatty acid synthase FASN (NADPH fluorescence intensity enzyme assay)
Conditions: for IC50: human recombinant full-length FASN, inhibition
Source text: • GST=Glutathione-S-transferase • FRET=Fluorescence resonance energy transfer • HTRF®=(homogenous time resolved fluorescence) • HEPES=4-(2-hydroxyethyl)-1-piperazine ethanesulfonic acid buffer • DTT=Dithiothreitol • BSA=bovine serum albumin • CHAPS=detergent; • CHAPS=3-[(3-cholamidopropyl)dimethylammonio]-1-propanesulfonate Biochemical Activity Testing of Human Fatty Acid Synthase FASN
Fatty acid synthase FASN is a multifunctional enzyme with seven catalytic activities thereby synthesising long chain fatty acids especially palmitoyl-CoA in the presence of co-factor NADPH starting from the substrates acetyl-CoA and malonyl-CoA. The reductive synthesis is realized by the oxidation of NADPH to NADP. Since NADPH has a high fluorescence intensity quantum yield compared to NADP with excitation at 340 nm and emission at 460 nm, the reaction can be monitored via the decrease in fluorescence intensity. The biochemical FASN activity testing was performed as 384 well two-time-point kinetic fluorescence intensity assay format in Greiner low volume medium binding 384-well black microtiter plates in a total assay volume of 8 μl and was used for high throughput screen. In each well 3 μl 40 nM human recombinant full-length fatty acid synthase (produced in-house in SF9 cells) were dispensed in the following assay buffer: 50 mM potassium phosphate buffer pH 7.0, 0.005% (w/v) BSA, 2 mM Glutathione, 0.02% Tween-20. Then 2 μl of 200 μM NADPH in assay buffer were added, followed by the addition of the test compounds in 10 dilution concentrations starting with 30 μM (final concentration) to get a final DMSO content of 1% (v/v). The mixture was incubated for at least 15 min at room temperature. After the pre-incubation the enzymatic reaction was started by the addition of 2 μl substrate solution (80 μM acetyl-CoA, 240 μM malonyl-CoA). A first fluorescence intensity measurement (time point one) was performed with an Envision multimode reader (Perkin Elmer LAS Germany GmbH) at excitation wavelength 340 nm (lamp mode) and emission wavelength 460 nm. The reaction was incubated for 30 minutes at room temperature. After this the fluorescence intensity was measured again in the Envision using the same parameters as described above (second time point measurement). The data were analysed by subtracting the first time point measurement value from the second time point measurement value (after the enzymatic reaction). The differences of the emission signals were determined. These reflect directly the conversion rate of NADPH. The full value used was the inhibitor-free reaction. A pharmacological zero value was used like GSK837149A (Sigma-Aldrich) in a final concentration of 5-10 μM. The inhibitory values (IC50) were determined using either the program Symyx Assay Explorer® or Condosseo® from GeneData.

T1 sequence (P49327 whole entry): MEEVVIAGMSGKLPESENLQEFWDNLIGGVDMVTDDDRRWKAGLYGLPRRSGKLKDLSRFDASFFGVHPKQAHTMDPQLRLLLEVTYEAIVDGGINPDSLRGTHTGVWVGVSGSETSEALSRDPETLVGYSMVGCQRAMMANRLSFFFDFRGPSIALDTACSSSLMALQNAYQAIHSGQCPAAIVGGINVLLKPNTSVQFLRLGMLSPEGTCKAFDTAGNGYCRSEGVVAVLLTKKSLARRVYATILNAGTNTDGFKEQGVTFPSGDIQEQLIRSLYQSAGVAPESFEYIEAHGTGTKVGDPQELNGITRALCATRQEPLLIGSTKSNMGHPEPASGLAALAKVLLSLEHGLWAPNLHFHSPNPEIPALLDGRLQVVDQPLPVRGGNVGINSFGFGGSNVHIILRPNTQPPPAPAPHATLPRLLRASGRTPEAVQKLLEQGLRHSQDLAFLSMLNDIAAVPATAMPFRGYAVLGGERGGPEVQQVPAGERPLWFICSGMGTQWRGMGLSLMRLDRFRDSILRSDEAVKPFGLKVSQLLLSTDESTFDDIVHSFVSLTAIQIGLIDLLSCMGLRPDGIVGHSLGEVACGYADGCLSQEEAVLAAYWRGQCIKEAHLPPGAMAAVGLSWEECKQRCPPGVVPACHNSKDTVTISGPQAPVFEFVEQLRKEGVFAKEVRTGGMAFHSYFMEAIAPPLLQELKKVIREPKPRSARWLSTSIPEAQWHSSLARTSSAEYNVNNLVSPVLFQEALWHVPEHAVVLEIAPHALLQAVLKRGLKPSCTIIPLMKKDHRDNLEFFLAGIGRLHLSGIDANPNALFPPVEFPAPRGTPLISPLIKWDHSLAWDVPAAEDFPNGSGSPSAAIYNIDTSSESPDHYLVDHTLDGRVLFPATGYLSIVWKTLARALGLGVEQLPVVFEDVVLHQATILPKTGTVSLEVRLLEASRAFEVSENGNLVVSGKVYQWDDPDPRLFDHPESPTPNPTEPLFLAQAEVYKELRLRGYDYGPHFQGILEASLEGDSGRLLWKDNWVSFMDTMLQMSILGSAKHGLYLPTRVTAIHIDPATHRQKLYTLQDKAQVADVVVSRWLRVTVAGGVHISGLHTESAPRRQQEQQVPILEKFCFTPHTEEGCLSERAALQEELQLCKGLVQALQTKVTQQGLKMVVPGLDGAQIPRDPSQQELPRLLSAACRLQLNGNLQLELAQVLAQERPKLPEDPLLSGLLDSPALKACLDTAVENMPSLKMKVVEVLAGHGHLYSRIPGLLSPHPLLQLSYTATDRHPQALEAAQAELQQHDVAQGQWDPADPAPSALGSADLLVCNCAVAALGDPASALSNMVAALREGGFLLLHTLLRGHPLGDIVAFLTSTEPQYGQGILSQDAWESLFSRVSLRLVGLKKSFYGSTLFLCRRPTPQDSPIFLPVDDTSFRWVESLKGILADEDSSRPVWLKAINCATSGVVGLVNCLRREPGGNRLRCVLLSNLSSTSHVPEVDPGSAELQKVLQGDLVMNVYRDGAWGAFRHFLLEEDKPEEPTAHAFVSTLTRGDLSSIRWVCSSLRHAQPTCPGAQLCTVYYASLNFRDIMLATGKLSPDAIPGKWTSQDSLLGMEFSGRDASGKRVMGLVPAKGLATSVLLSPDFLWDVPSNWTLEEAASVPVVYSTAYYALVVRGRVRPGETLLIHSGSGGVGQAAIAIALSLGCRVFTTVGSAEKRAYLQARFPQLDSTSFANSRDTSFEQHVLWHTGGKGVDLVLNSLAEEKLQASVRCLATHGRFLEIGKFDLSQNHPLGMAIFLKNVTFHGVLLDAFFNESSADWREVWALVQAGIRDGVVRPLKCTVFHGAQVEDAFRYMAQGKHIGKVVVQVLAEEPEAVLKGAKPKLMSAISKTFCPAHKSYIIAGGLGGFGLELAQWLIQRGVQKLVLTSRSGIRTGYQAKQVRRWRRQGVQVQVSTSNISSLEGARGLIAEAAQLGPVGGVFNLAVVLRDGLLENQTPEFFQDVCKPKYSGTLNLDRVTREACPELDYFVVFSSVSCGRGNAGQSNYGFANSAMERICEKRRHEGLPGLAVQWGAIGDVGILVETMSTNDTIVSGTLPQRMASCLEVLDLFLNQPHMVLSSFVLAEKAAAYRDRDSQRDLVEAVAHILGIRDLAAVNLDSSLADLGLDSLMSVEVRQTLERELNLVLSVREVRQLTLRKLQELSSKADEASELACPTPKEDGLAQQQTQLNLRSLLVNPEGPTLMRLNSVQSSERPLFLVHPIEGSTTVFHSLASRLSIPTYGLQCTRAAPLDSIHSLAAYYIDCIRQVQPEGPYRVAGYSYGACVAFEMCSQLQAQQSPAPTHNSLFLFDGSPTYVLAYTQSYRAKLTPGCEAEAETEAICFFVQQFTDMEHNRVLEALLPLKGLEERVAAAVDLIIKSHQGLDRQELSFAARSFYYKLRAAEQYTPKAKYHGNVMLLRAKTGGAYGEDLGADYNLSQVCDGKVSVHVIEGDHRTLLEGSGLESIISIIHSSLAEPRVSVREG

IC50 | SMILES | IC50 FASN (enzyme assay): % at single concentration (@30 μM)
< 300 nM | Cc1nnc([C@H]2CC[C@@H](N(C)C(=O)c3ccc(-c4ccc(C#N)cc4)cc3)C2)o1 [Compound A25, 4′-cyano-biphenyl-4-carboxylic acid methyl-[(1R,3S)-3-(5-methyl-[1,3,4]oxadiazol-2-yl)-cyclopentyl]-amide] | –
< 300 nM | Cc1cnc([C@H]2CC[C@@H](N(C)C(=O)c3ccc(-c4nc5ccccc5o4)cc3)C2)o1 [Compound A26, 4-benzoxazol-2-yl-N-methyl-N-[(1 R,3S)-3-(5-methyl-oxazol-2-yl)-cyclopentyl]-benzamide] | –
300 to 3000 nM | Cc1coc([C@H]2CC[C@@H](N(C)C(=O)c3ccc(-c4nc5ccccc5o4)cc3)C2)n1 [Compound A27, 4-benzoxazol-2-yl-N-methyl-N-[(1 R,3S)-3-(4-methyl-oxazol-2-yl)-cyclopentyl]-benzamide] | –
– | Cc1noc([C@H]2CC[C@@H](N(C)C(=O)c3ccc(-c4nc5ccccc5o4)cc3)C2)n1 [Compound A28, 4-benzoxazol-2-yl-N-methyl-N-[(1 R,3S)-3-(3-methyl-[1,2,4]oxadiazol-5-yl)-cyclopentyl]-benzamide] | −38% @30 μM
